Results from patent US7935530B2, “Polyamides with tail structures capable of binding DNA” (California Institute of Technology, priority 2006, dated 2011).

Assays:
[1] = test system: 5′-ATACGT-3′ sequence within the HRE of the VEGF promoter; details: values quoted from earlier publications (refs 16, 20); cited from earlier work
[2] = test system: 5′-AGACA-3′ site 16 basepairs 5′ to the FLT1 HRE; assay: Quantitative DNase I footprint titration on pCSJ-FLT1, site 5′ to the FLT1 HRE; format: binding
Protocol: (§1) Quantitative DNase I footprint titration experiments were used to measure the binding affinities of polyamides 11.1, 11.2, 11.3, and echinomycin on 5′ ^32P-labeled fragments of pGL2-VEGF-Luc and pCSJ-FLT1 containing promoter sequences containing the HREs of VEGF and FLT1, respectively. Quantitative DNase I footprint titration experiments were conducted as reported previously (56).

[3] = test system: two 5′-WGWCW-3′ sites approximately 35 basepairs 3′ of the HRE; assay: Quantitative DNase I footprint titration on pGL2-VEGF-Luc, sites 3′ of the HRE; format: binding
Protocol: as §1

| Ka at a 5′-AGACA-3′ site 16 basepairs 5′ to the FLT1 HRE [2] | Ka approximately 35 basepairs 3′ of the HRE, most likely two 5′-WGWCW-3′ sites [3] | SMILES | Ka at the VEGF HRE, previously found [1] |
| --- | --- | --- | --- |
|  |  | CN(CCCNC(=O)c1cccc(C(=O)O)c1)CCCNC(=O)c1cc(NC(=O)c2cc(NC(=O)c3nc(NC(=O)c4cc(NC(=O)[C@H](N)CCNC(=O)c5nc(NC(=O)c6cc(NC(=O)c7cc(NC(=O)c8sccc8Cl)cn7C)cn6C)cn5C)cn4C)cn3C)cn2C)cn1C [Polyamide 11] | 2.6 (±0.4)×10^10 M^−1 |
| 2.7 (±0.4)×10^9 M^−1 | 7.6 (±1.0)×10^8 M^−1 | CN(CCCNC(=O)c1cccc(C(=O)O)c1)CCCNC(=O)c1cc(NC(=O)c2cc(NC(=O)c3cc(NC(=O)c4nc(NC(=O)[C@H](N)CCNC(=O)c5cc(NC(=O)c6cc(NC(=O)c7nc(NC(=O)c8nccn8C)cn7C)cn6C)cn5C)cn4C)cn3C)cn2C)cn1C [Polyamide 23] |  |
